Test results from the NIST ThermoML archive (doi:10.1021/acs.jced.6b00733).
Numbers after ± are expanded uncertainties.

Assays:
[1] = Liquid, Ebulliometric method (Recirculating still)
[2] = refractive index (Na D-line) (dimensionless); details: 298.15 K; 101.3 kPa; Liquid; Standard Abbe refractometry

In the case of `c1ccccc1` [benzene], the “vapor or sublimation pressure” value ([1]; 353.27 K) is reported as 101.33 ± 1 kPa.

With `CC(=O)OCCC(C)C` [3-methylbutyl ethanoate] the refractive index [2] was 1.3977 ± 0.0004 and the “vapor or sublimation pressure” value ([1]; 415.19 K) was 101.33 ± 1 kPa.

In the case of `C[S+](C)[O-]` [dimethyl sulfoxide], the refractive index [2] is reported as 1.4779 ± 0.0004 and the “vapor or sublimation pressure” value ([1]; 463.93 K) is reported as 101.33 ± 1 kPa.

With `CC(C)CCO` [3-methylbutan-1-ol] the refractive index [2] was 1.4042 ± 0.0004 and the “vapor or sublimation pressure” value ([1]; 404.05 K) was 101.33 ± 1 kPa.

In the case of `Cc1ccccc1` [toluene], the “vapor or sublimation pressure” value ([1]; 383.82 K) is reported as 101.33 ± 1 kPa.
